The values that follow come from US20070111328A1, “Scintillation proximity assay for the identification of P-glycoprotein modulators” (priority 2005, published 2007).

The target in data set [1] is T1, P-glycoprotein (P-gp) (Homo sapiens, UniProt P08183). Kind of data set: Scintillation proximity assay (SPA): competition with [3H]vinblastine binding to P-gp in KB-V1 cell membranes. The settings on record: mean of triplicates; for effect of test compound on P-gp specific binding signal: test compound 10 μM final concentration, FIG. 8.
Description: The samples were incubated for an additional 3 to 24-hours.
The methods described herein are based on the scintillation proximity assay (SPA) technique and its use to detect signal changes in the presence of a test compound. […] The signal should be reduced when the test compound is a P-gp substrate and/or inhibitor because of competition on the binding site or inhibition of the binding.
Data set [2] concerns the target T1, P-glycoprotein (P-gp). Kind of data set: SPA saturation binding of [3H]-vinblastine to P-gp (KB-V1 cell membranes). The arrangement: endogenous in cells; host or cells: KB-V1 cells (multidrug-resistant subclone of KB-3-1, HeLa-derived); sucrose-gradient purified plasma membranes. Particulars: [3H]-vinblastine 5 to 55 nM, specific binding fitted with Prism; read-out: KD (binding dissociation constant). On the procedure:
The specific signal values versus the amount of radioligand was fitted to the equation using the Prism software (GraphPad Software Inc, San Diego, Calif.) as the following: [formula] where Bmax is the maximal binding, [L] is a ligand concentration, and KD is the binding dissociation constant. The fitting gave the KD value of 4 nM, which is in agreement with literature data.

T1 sequence (P08183 whole entry): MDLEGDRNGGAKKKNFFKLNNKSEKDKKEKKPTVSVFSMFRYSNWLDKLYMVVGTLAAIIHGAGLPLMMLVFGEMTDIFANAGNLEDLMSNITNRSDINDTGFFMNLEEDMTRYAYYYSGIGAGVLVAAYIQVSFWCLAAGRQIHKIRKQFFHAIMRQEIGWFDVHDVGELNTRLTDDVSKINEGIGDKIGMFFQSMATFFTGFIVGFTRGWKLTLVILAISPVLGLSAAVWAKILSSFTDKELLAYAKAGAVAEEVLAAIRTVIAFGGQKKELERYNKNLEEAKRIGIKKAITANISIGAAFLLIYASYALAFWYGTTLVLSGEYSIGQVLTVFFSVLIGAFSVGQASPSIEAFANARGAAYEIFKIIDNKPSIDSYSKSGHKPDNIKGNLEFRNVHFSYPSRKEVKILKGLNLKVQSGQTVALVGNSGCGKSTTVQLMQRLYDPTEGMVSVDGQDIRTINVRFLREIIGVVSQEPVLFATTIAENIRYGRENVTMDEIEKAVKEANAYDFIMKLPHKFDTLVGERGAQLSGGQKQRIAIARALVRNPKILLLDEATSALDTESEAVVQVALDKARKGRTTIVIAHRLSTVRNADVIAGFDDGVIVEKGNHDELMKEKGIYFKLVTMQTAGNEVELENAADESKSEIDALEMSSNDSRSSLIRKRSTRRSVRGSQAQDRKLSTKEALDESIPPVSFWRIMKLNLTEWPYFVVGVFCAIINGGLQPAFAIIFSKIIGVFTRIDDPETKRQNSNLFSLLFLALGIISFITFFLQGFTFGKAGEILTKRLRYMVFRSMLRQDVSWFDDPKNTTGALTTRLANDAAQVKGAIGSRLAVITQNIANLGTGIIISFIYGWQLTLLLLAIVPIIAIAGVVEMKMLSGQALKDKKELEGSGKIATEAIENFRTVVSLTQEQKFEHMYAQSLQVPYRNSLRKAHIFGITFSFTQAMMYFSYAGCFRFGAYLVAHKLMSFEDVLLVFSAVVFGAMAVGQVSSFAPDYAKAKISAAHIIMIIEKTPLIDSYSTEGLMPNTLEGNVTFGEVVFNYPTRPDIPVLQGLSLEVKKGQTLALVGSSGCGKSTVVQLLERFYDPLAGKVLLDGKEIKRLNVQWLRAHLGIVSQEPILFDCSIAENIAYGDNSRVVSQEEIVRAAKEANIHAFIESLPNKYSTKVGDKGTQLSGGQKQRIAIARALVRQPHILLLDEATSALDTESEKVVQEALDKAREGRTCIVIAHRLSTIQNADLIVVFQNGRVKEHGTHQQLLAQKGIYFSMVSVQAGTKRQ

As to `COc1cccc2c1C(=O)c1c(O)c3c(c(O)c1C2=O)C[C@@](O)(C(=O)CO)C[C@@H]3O[C@H]1C[C@H](N)[C@H](O)[C@H](C)O1` [doxorubicin], the “effect of test compound on P-gp specific binding signal” value at P-glycoprotein (P-gp) [1] is on record as “did not appear to interfere with the P-gp signal”.
As to `CC[C@]1(O)C[C@@H]2CN(CCc3c([nH]c4ccccc34)[C@@](C(=O)OC)(c3cc4c(cc3OC)N(C)[C@H]3[C@@](O)(C(=O)OC)[C@H](OC(C)=O)[C@]5(CC)C=CCN6CC[C@]43[C@@H]65)C2)C1` [[^3H]-vinblastine], at P-glycoprotein (P-gp) [2], the Kd was 4 nM.
Consider `Cn1c(=O)c2c(ncn2C)n(C)c1=O` [caffeine], for which, at P-glycoprotein (P-gp) [1], the “effect of test compound on P-gp specific binding signal” value is “no impact on the P-gp signal”.
On the same count and under the same terms, for `CN(Cc1cnc2nc(N)nc(N)c2n1)c1ccc(C(=O)N[C@@H](CCC(=O)O)C(=O)O)cc1` [methotrexate] the value was “did not appear to interfere with the P-gp signal”.
As to Ivermectin, at P-glycoprotein (P-gp) [1] (read-out: IC50 values determined by SPA, inhibition of [3H]vinblastine binding to P-gp, KB-V1 membranes, WGA-Ysi beads, PRISM fit), the IC50 was 362 nM.
